Drawing on patent publication US9127015B2, “Tricyclopyrazole derivatives” (NERVIANO MEDICAL SCIENCES S.R.L., priority 2009, dated 2015), this text covers IC50 for 47 compounds.

Values joined by “and” are separate entries in the source; they are usually repeats but may differ in a detail not shown here. Identical values can stand only once.

Chain of ACK1 (Q07912 whole entry): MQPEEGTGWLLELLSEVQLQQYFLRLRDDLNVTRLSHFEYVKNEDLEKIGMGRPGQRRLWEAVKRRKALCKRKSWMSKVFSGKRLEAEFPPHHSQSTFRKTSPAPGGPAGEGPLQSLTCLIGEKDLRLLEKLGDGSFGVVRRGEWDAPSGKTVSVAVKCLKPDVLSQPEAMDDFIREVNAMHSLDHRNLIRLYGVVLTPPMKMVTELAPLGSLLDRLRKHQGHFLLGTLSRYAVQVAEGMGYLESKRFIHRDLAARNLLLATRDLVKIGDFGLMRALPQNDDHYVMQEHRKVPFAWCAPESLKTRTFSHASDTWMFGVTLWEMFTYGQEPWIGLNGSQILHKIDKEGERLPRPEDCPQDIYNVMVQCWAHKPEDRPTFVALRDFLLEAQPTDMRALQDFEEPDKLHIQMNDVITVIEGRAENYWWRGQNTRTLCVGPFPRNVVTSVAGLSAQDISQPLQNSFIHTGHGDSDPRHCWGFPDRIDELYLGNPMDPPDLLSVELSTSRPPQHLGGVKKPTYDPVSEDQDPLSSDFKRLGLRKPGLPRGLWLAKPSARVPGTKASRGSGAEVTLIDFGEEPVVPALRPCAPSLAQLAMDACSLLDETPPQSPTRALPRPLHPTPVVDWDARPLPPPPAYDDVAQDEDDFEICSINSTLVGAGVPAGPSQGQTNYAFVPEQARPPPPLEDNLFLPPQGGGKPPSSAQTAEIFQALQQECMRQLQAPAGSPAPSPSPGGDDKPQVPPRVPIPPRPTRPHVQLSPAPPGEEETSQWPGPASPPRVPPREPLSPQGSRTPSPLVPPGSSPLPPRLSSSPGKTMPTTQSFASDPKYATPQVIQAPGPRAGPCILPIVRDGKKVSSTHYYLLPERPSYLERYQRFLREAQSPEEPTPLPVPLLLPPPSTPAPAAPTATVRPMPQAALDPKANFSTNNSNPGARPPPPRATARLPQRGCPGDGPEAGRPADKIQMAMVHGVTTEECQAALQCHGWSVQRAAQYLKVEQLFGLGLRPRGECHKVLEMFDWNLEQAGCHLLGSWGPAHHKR
Chain of KIT (P10721 26-976): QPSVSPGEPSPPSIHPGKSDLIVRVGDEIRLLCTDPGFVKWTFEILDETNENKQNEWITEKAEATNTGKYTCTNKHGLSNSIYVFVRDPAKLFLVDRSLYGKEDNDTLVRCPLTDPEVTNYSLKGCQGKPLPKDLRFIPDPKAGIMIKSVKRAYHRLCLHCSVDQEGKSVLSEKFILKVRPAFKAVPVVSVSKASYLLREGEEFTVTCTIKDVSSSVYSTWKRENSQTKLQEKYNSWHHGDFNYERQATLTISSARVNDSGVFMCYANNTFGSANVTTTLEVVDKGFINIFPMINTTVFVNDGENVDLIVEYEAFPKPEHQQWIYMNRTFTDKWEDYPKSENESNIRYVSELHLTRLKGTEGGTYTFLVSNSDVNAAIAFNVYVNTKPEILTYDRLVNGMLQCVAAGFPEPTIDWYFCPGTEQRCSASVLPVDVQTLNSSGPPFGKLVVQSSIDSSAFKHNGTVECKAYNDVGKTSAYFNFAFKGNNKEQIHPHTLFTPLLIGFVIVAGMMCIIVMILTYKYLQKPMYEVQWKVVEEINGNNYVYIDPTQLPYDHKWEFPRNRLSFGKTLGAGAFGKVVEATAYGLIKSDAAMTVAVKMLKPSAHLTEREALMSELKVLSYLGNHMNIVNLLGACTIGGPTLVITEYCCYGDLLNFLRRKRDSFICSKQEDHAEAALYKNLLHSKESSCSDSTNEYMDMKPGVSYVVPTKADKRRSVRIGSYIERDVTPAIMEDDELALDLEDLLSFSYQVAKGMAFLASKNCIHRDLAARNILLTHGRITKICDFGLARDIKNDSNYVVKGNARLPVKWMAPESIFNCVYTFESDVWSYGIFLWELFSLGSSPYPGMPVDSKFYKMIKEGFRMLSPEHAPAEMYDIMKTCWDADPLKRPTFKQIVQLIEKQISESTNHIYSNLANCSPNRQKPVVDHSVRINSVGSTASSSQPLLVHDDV

One test concerns the target ACK1 (Homo sapiens, UniProt Q07912). Kind of test: Kinase inhibition assay, IC50 (Table A). It counts as biochemical. Particulars: Enzyme ACK1. On the procedure:
(§1) The inhibiting activity of putative kinase inhibitors and the potency of selected compounds is determined through a method of assay based on the use of the Kinase-Glo® Luminescent Kinase Assay (commercially available from Promega corporation and described in Koresawa, M. and Okabe, T. (2004) High-throughput screening with quantitation of ATP consumption: A universal non-radioisotope, homogeneous assay for protein kinase. Assay Drug Dev. Technol. 2, 153-60).
(§2) The inhibitory activity of putative kinase inhibitors and the potency of selected compounds were also determined using a trans-phosphorylation assay.
(§3) Specific peptide or protein substrates are trans-phosphorylated by their specific ser-thr or tyr kinase in the presence of ATP traced with ^33P-γ-ATP, and in the presence of their own optimal buffer and cofactors. At the end of the phosphorylation reaction, more than 98% unlabeled ATP and radioactive ATP is captured by an excess of the ion exchange dowex resin; the resin then settles down to the bottom of the reaction plate by gravity. Supernatant is subsequently withdrawn and transferred into a counting plate, then evaluated by β-counting.
(§4) Reaction conditions are target (enzyme) dependent and thus undergo individual adaptations. Also the buffer conditions may vary depending on the kinase of interest. The assay can be used with virtually any kinase and substrate combination and is suitable for all type of protein kinases, such as ABL, ACK1, AKT1, ALK, AUR1, AUR2, BRK, BUB1, CDC7/DBF4, CDK21CYCA, CHK1, CK2, EEF2K, EGFR1, EphA2, EphB4, ERK2, FAK, FGFR1, FLT3, GSK3beta, Haspin, IGFR1, IKK2, IR, JAK1, JAK2, JAK3, KIT, LCK, LYN, MAPKAPK2, MELK, MET, MNK2, MPSI, MST4, NEK6, NIM1, P38alpha, PAK-4, PDGFR, PDK1, PERK, PIM1, PIM2, PKAalpha, PKCbeta, PLK1, RET, ROS1, SULU1, Syk, TLK2, TRKA, TYK, VEGFR2, VEGFR3, ZAP70.
Take `O=C(Nc1n[nH]c2c1CCn1cc(C(=O)N3CCOCC3)cc1-2)c1ccccc1Cl` [Example A5-M1-B7]: the IC50 – broadly, the midpoint of a concentration-inhibition curve – was 1430 nM.

In the case of `O=C(Nc1n[nH]c2c1CCn1cc(C(=O)N3CCCC3)cc1-2)c1ccccc1Cl` [Example A5-M1-B8], the IC50 is 630 nM and 480 nM.

For the compound `CC(C)NC(=O)c1cc2n(c1)CCc1c(NC(=O)c3ccccc3Cl)n[nH]c1-2` [Example A5-M1-B10], the IC50 was 3250 nM.

As to `CCN(CC)C(=O)c1cc2n(c1)CCc1c(NC(=O)c3ccccc3Cl)n[nH]c1-2` [Example A5-M1-B17], the IC50 was 2160 nM.

Regarding `O=C(NCc1ccncc1)c1cc2n(c1)CCc1c(NC(=O)c3ccccc3Cl)n[nH]c1-2` [Example A5-M1-B25], the IC50 is 1920 nM.

Take `O=C(NCc1ccccn1)c1cc2n(c1)CCc1c(NC(=O)c3ccccc3Cl)n[nH]c1-2` [Example A5-M1-B26]: the IC50 turned out to be 3040 nM.

With `CCC(C)NC(=O)c1cc2n(c1)CCc1c(NC(=O)c3ccccc3Cl)n[nH]c1-2` (stereo not shown) [Example A5-M1-B27], the IC50 is 2400 nM.

With `O=C(NC1CCCC1)c1cc2n(c1)CCc1c(NC(=O)c3ccccc3Cl)n[nH]c1-2` [Example A5-M1-B28], the IC50 came to 4330 nM.

`O=C(NC1CC1)c1cc2n(c1)CCc1c(NC(=O)c3ccccc3Cl)n[nH]c1-2` [Example A5-M1-B30]: the IC50 is 4710 nM.

On to `O=C(NCCN1CCCCC1)c1cc2n(c1)CCc1c(NC(=O)c3ccccc3Cl)n[nH]c1-2` [Example A5-M1-B31], for which the IC50 turned out to be 3160 nM.

For `CCCN1CCN(C(=O)c2cc3n(c2)CCc2c(NC(=O)c4ccccc4Cl)n[nH]c2-3)CC1` [Example A5-M1-B32], the IC50 came out at 1380 nM.

Turning to `C=CCNC(=O)c1cc2n(c1)CCc1c(NC(=O)c3ccccc3Cl)n[nH]c1-2` [Example A5-M1-B36], the IC50 stood at 4120 nM.

Take `O=C(Nc1n[nH]c2c1CCn1cc(C(=O)N3CCSCC3)cc1-2)c1ccccc1Cl` [Example A5-M1-B38]: the IC50 was found to be 2160 nM.

With `CC(C)CNC(=O)c1cc2n(c1)CCc1c(NC(=O)c3ccccc3Cl)n[nH]c1-2` [Example A5-M1-B39], the IC50 turned out to be 1940 nM.

As to `CC(C)N1CCN(C(=O)c2cc3n(c2)CCc2c(NC(=O)c4ccccc4Cl)n[nH]c2-3)CC1` [Example A5-M1-B40], the IC50 worked out at 1730 nM.

As to `O=C(NCc1ccccn1)c1cc2n(c1)CCCc1c(NC(=O)c3ccccc3Cl)n[nH]c1-2` [Example A5-M2-B26], the IC50 was 4840 nM.

Regarding `O=C(NCCN1CCCCC1)c1cc2n(c1)CCCc1c(NC(=O)c3ccccc3Cl)n[nH]c1-2` [Example A5-M2-B31], the IC50 came to 3510 nM.

On to `COCCNC(=O)c1cc2n(c1)CCCc1c(NC(=O)c3ccccc3Cl)n[nH]c1-2` [Example A5-M2-B33], for which the IC50 stood at 2470 nM.

For the compound `C=CCNC(=O)c1cc2n(c1)CCCc1c(NC(=O)c3ccccc3Cl)n[nH]c1-2` [Example A5-M2-B36], the IC50 was determined as 740 nM.

As for `CC(C)CNC(=O)c1cc2n(c1)CCCc1c(NC(=O)c3ccccc3Cl)n[nH]c1-2` [Example A5-M2-B39], the IC50 turned out to be 550 nM.

In the case of `O=C(NCC1CC1)c1cc2n(c1)CCCc1c(NC(=O)c3ccccc3Cl)n[nH]c1-2` [Example A5-M2-B41], the IC50 is 440 nM and 240 nM.

Take `COc1ccccc1C(=O)Nc1n[nH]c2c1CCn1cc(C(=O)N3CCCC3)cc1-2` [Example A6-M1-B8]: the IC50 is 1890 nM.

With `O=C(Nc1n[nH]c2c1CCn1cc(C(=O)N3CCCC3)cc1-2)c1ccccc1F` [Example A20-M1-B8], the IC50 stood at 1040 nM.

On to `CCCN1CCN(C(=O)c2cc3n(c2)CCc2c(NC(=O)c4ccccc4F)n[nH]c2-3)CC1` [Example A20-M1-B32], for which the IC50 was found to be 3060 nM.

With `Cc1ccccc1C(=O)Nc1n[nH]c2c1CCn1cc(C(=O)N3CCCC3)cc1-2` [Example A21-M1-B8], the IC50 stood at 630 nM.

In the case of `CCN(CC)C(=O)c1cc2n(c1)CCc1c(NC(=O)c3ccccc3C)n[nH]c1-2` [Example A21-M1-B17], the IC50 worked out at 1410 nM.

Turning to `Cc1ccccc1C(=O)Nc1n[nH]c2c1CCn1cc(C(=O)NCC3CC3)cc1-2` [Example A21-M1-B41], the IC50 was 2450 nM.

For `Cc1ccccc1C(=O)Nc1n[nH]c2c1CCCn1cc(C(=O)NCC3CC3)cc1-2` [Example A21-M2-B41], the IC50 was 1560 nM.

For the compound `CC(C)CNC(=O)c1cc2n(c1)CCCc1c(NC(=O)C(C)C)n[nH]c1-2` [Example A27-M2-B39], the IC50 is 3170 nM.

Take `Cc1ccc(C(=O)Nc2n[nH]c3c2CCn2cc(C(=O)N4CCOCC4)cc2-3)c(C)c1` [Example A35-M1-B7]: the IC50 turned out to be 5910 nM.

In the case of `Cc1ccc(C(=O)Nc2n[nH]c3c2CCn2cc(C(=O)NC(C)C)cc2-3)c(C)c1` [Example A35-M1-B10], the IC50 stood at 3130 nM.

As to `Cc1ccc(C(=O)Nc2n[nH]c3c2CCn2cc(C(=O)NC4CC4)cc2-3)c(C)c1` [Example A35-M1-B30], the IC50 was found to be 6560 nM.

In the case of `CCCN1CCN(C(=O)c2cc3n(c2)CCc2c(NC(=O)c4ccc(C)cc4C)n[nH]c2-3)CC1` [Example A35-M1-B32], the IC50 came to 1210 nM.

Turning to `Cc1ccc(C(=O)Nc2n[nH]c3c2CCn2cc(C(=O)NCC(C)C)cc2-3)c(C)c1` [Example A35-M1-B39], the IC50 stood at 2850 nM.

Regarding `Cc1ccc(C(=O)Nc2n[nH]c3c2CCn2cc(C(=O)NCC4CC4)cc2-3)c(C)c1` [Example A35-M1-B41], the IC50 was found to be 2870 nM.

`Cc1ccc(C(=O)Nc2n[nH]c3c2CCn2cc(C(=O)N4CCCCC4)cc2-3)c(C)c1` [Example A35-M1-B42]: the IC50 is 2200 nM.

As to `COCCNC(=O)c1cc2n(c1)CCCc1c(NC(=O)c3ccc(C)cc3C)n[nH]c1-2` [Example A35-M2-B33], the IC50 came to 3820 nM.

Consider `C=CCNC(=O)c1cc2n(c1)CCCc1c(NC(=O)c3ccc(C)cc3C)n[nH]c1-2` [Example A35-M2-B36], for which the IC50 is 3980 nM.

Consider `Cc1ccc(C(=O)Nc2n[nH]c3c2CCCn2cc(C(=O)NCC(C)C)cc2-3)c(C)c1` [Example A35-M2-B39], for which the IC50 was 1410 nM.

Turning to `O=C(NCC1CC1)c1cc2n(c1)CCCc1c(NC(=O)c3c(Cl)cccc3Cl)n[nH]c1-2` [Example A38-M2-B41], the IC50 worked out at 2820 nM.

Turning to `Cc1cc(C)c(C(=O)Nc2n[nH]c3c2CCn2cc(C(=O)N4CCCC4)cc2-3)c(C)c1` [Example A39-M1-B8], the IC50 stood at 750 nM.

In the case of `Cc1cc(C)c(C(=O)Nc2n[nH]c3c2CCn2cc(C(=O)N4CCC(N5CCCCC5)CC4)cc2-3)c(C)c1` [Example A39-M1-B34], the IC50 turned out to be 5540 nM.

Another test addresses KIT (Homo sapiens, UniProt P10721). Kind of test: Kinase inhibition assay, IC50 (Table A). Particulars: Enzyme KIT. It is filed as biochemical. Here is the method: as §1, §2, §3, §4
Regarding `O=C(Nc1n[nH]c2c1CCn1cc(C(=O)N3CCCC3)cc1-2)c1ccccc1Cl` [Example A5-M1-B8], the IC50 came out at 5980 nM.

On to `O=C(NCc1cccs1)c1cc2n(c1)CCc1c(NC(=O)c3cccc(F)c3)n[nH]c1-2` [Example A8-M1-B16], for which the IC50 was determined as 2680 nM.

For `O=C(NCCc1ccc(Cl)cc1)c1cc2n(c1)CCc1c(NC(=O)c3ccco3)n[nH]c1-2` [Example A9-M1-B13], the IC50 came out at 5850 nM.

Turning to `O=C(NCc1cccs1)c1cc2n(c1)CCc1c(NC(=O)c3ccco3)n[nH]c1-2` [Example A9-M1-B16], the 50% inhibitory concentration (IC50) is 850 nM.

Regarding `O=C(NCc1cccs1)c1cc2n(c1)CCc1c(NC(=O)c3ccc4c(c3)OCO4)n[nH]c1-2` [Example A11-M1-B16], the IC50 is 2660 nM.

For the compound `CN1CCN(c2ccc(C(=O)Nc3n[nH]c4c3CCn3cc(C(=O)N(C)C)cc3-4)cc2)CC1` [Example A16-M1-B19], the IC50 was 4470 nM.

For the compound `O=C(Nc1n[nH]c2c1CCn1cc(C(=O)N3CCCC3)cc1-2)c1ccccc1F` [Example A20-M1-B8], the IC50 was 2020 nM.

The target in the next test is ABL (Homo sapiens, UniProt P00519). Kind of test: Kinase inhibition assay, IC50 (Table A). It is filed as biochemical. Particulars: Enzyme ABL. On the procedure: as §1, §2, §3, §4
Chain of ABL (P00519 whole entry): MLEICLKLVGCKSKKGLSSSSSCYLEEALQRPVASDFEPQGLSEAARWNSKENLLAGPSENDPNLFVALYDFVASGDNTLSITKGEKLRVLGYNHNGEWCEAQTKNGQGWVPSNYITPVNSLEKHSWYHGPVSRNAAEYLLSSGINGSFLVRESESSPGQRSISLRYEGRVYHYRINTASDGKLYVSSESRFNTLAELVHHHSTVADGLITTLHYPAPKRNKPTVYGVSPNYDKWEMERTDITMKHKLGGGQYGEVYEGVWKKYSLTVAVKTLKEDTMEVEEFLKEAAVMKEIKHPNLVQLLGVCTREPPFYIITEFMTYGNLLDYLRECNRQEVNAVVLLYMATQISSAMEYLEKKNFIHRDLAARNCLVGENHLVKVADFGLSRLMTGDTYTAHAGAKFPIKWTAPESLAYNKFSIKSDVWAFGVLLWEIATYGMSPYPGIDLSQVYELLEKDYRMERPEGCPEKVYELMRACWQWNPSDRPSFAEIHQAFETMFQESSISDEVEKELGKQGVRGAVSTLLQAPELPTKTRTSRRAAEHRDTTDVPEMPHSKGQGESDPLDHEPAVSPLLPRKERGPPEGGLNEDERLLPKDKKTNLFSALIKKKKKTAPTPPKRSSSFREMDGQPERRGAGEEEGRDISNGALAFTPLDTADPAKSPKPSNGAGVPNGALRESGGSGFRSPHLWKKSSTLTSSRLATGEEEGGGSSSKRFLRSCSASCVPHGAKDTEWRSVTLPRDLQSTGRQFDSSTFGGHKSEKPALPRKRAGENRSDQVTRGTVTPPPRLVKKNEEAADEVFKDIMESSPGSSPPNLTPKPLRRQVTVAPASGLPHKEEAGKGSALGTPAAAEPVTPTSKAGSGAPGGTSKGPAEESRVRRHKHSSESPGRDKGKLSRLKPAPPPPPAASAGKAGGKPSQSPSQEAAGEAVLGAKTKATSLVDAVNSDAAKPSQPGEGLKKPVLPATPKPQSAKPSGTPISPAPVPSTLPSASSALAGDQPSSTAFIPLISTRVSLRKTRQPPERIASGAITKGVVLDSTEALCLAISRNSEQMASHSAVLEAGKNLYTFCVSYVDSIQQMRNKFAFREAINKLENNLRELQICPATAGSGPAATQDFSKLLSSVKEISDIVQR
`O=C(Nc1n[nH]c2c1CCn1cc(C(=O)N3CCCC3)cc1-2)c1ccccc1Cl` [Example A5-M1-B8]: the IC50 was 1860 nM and 2230 nM.

As to `O=C(Nc1n[nH]c2c1CCn1cc(C(=O)N3CCCC3)cc1-2)c1ccccc1F` [Example A20-M1-B8], the IC50 is 2430 nM.

On to `Cc1ccccc1C(=O)Nc1n[nH]c2c1CCn1cc(C(=O)N3CCCC3)cc1-2` [Example A21-M1-B8], for which the IC50 stood at 4940 nM.
